Test system: patients with advanced solid tumors
Assay: Safety: adverse events (NCI CTCAE v3.0), ECG
Format: in vivo, human
Procedure: Patients’ demographics and medical history were recorded at baseline. Physical examination and PS were assessed at baseline and on Day 1 of each cycle. Adverse events (AEs), vital signs, hematology and chemistry values, and creatinine clearance were assessed at baseline and weekly during treatment. Toxicity was graded using National Cancer Institute Common Terminology Criteria for Adverse Events (NCI CTCAE), version 3.0. An electrocardiogram (ECG) was performed at baseline, before and after treatment on Days 1 and 15 of Cycles 1 and 2, and on Day 15 of even-numbered cycles thereafter. CT scans were done at baseline and every 8 weeks thereafter. Tumor response was assessed using Response Evaluation Criteria in Solid Tumors (RECIST, v1.0), with confirmation of responses performed at least 4 weeks later.

## CC(C)c1cc(-c2n[nH]c(=O)n2-c2ccc3c(ccn3C)c2)c(O)cc1O [Ganetespib, 5-[2,4-dihydroxy-5-(1 methyl-ethyl)phenyl]-2,4 dihydro-4-(1-methyl-1H indol-5 yl)-3H-1,2,4 triazole-3-one]
259 mg/m^2, n = 6
  ALT elevation, CTCAE Grade 3 and 4 AE, Number (%) of patients: 0 n (%)
  AST elevated, AE of any grade, Number (%) of patients: 0 n (%)
  Abdominal distension, AE of any grade, Number (%) of patients: 0 n (%)
  Abdominal pain, AE of any grade, Number (%) of patients: 1 (16.7) n (%)
  Abdominal pain, serious adverse events, Number (%) of patients: 1 (16.7) n (%)
  Anemia, AE of any grade, Number (%) of patients: 0 n (%)
  Any event, AE of any grade, Number (%) of patients: 6 (100) n (%)
  Any event, CTCAE Grade 3 and 4 AE, Number (%) of patients: 5 (83.3) n (%)
  Any event, serious adverse events, Number (%) of patients: 3 (50) n (%)
  Arthralgia, CTCAE Grade 3 and 4 AE, Number (%) of patients: 1 (16.7) n (%)
  Asthenia, AE of any grade, Number (%) of patients: 2 (33.3) n (%)
  Asthenia, CTCAE Grade 3 and 4 AE, Number (%) of patients: 2 (33.3) n (%)
  Asthenia, serious adverse events, Number (%) of patients: 1 (16.7) n (%)
  Back pain, AE of any grade, Number (%) of patients: 2 (33.3) n (%)
  Constipation, AE of any grade, Number (%) of patients: 1 (16.7) n (%)
  Decreased appetite, AE of any grade, Number (%) of patients: 1 (16.7) n (%)
  Dehydration, AE of any grade, Number (%) of patients: 3 (50) n (%)
  Dehydration, CTCAE Grade 3 and 4 AE, Number (%) of patients: 1 (16.7) n (%)
  Dehydration, serious adverse events, Number (%) of patients: 1 (16.7) n (%)
  Diarrhea, AE of any grade, Number (%) of patients: 6 (100) n (%)
  Diarrhea, CTCAE Grade 3 and 4 AE, Number (%) of patients: 1 (16.7) n (%)
  Dizziness, AE of any grade, Number (%) of patients: 2 (33.3) n (%)
  Dry mouth, AE of any grade, Number (%) of patients: 1 (16.7) n (%)
  Dyspnea, AE of any grade, Number (%) of patients: 1 (16.7) n (%)
  Extremity pain, AE of any grade, Number (%) of patients: 1 (16.7) n (%)
  Fatigue, AE of any grade, Number (%) of patients: 5 (83.3) n (%)
  Fatigue, CTCAE Grade 3 and 4 AE, Number (%) of patients: 1 (16.7) n (%)
  Headache, AE of any grade, Number (%) of patients: 1 (16.7) n (%)
  Hyperbilirubinemia, CTCAE Grade 3 and 4 AE, Number (%) of patients: 0 n (%)
  Hypokalemia, AE of any grade, Number (%) of patients: 1 (16.7) n (%)
  Hypokalemia, CTCAE Grade 3 and 4 AE, Number (%) of patients: 0 n (%)
  Hyponatremia, CTCAE Grade 3 and 4 AE, Number (%) of patients: 0 n (%)
  Hypophosphatemia, AE of any grade, Number (%) of patients: 0 n (%)
  Hypophosphatemia, CTCAE Grade 3 and 4 AE, Number (%) of patients: 0 n (%)
  Insomnia, AE of any grade, Number (%) of patients: 2 (33.3) n (%)
  Musculoskeletal chest pain, AE of any grade, Number (%) of patients: 0 n (%)
  Nausea, AE of any grade, Number (%) of patients: 4 (66.7) n (%)
  Peripheral edema, AE of any grade, Number (%) of patients: 1 (16.7) n (%)
  Pneumonia, serious adverse events, Number (%) of patients: 1 (16.7) n (%)
  Rash, AE of any grade, Number (%) of patients: 1 (16.7) n (%)
  Serum amylase elevated, CTCAE Grade 3 and 4 AE, Number (%) of patients: 0 n (%)
  Spinal cord compression, CTCAE Grade 3 and 4 AE, Number (%) of patients: 0 n (%)
  Urinary tract infection, AE of any grade, Number (%) of patients: 3 (50) n (%)
  Vomiting, AE of any grade, Number (%) of patients: 3 (50) n (%)
  Weight decreased, AE of any grade, Number (%) of patients: 1 (16.7) n (%)
259 mg/m^2, n = 6, first of two ALT elevated lines
  ALT elevated, AE of any grade, Number (%) of patients: 0 n (%)
259 mg/m^2, n = 6, second of two ALT elevated lines
  ALT elevated, AE of any grade, Number (%) of patients: 0 n (%)
259 mg/m^2, history of coronary artery disease, possibly related to study drug
  Patients with Grade 1 atrio-ventricular block: One patient
259 mg/m^2 dose level
  Incidence of diarrhea: 100%
  Incidence of fatigue: 83.3%
7-114 mg/m^2, n = 25
  ALT elevation, CTCAE Grade 3 and 4 AE, Number (%) of patients: 2 (8) n (%)
  AST elevated, AE of any grade, Number (%) of patients: 5 (20) n (%)
  Abdominal distension, AE of any grade, Number (%) of patients: 3 (12) n (%)
  Abdominal pain, AE of any grade, Number (%) of patients: 9 (36) n (%)
  Abdominal pain, serious adverse events, Number (%) of patients: 0 n (%)
  Anemia, AE of any grade, Number (%) of patients: 11 (44) n (%)
  Any event, AE of any grade, Number (%) of patients: 25 (100) n (%)
  Any event, CTCAE Grade 3 and 4 AE, Number (%) of patients: 17 (68) n (%)
  Any event, serious adverse events, Number (%) of patients: 6 (24) n (%)
  Arthralgia, CTCAE Grade 3 and 4 AE, Number (%) of patients: 1 (4) n (%)
  Asthenia, AE of any grade, Number (%) of patients: 2 (8) n (%)
  Asthenia, CTCAE Grade 3 and 4 AE, Number (%) of patients: 1 (4) n (%)
  Asthenia, serious adverse events, Number (%) of patients: 0 n (%)
  Back pain, AE of any grade, Number (%) of patients: 4 (16) n (%)
  Constipation, AE of any grade, Number (%) of patients: 5 (20) n (%)
  Decreased appetite, AE of any grade, Number (%) of patients: 2 (8) n (%)
  Dehydration, AE of any grade, Number (%) of patients: 1 (4) n (%)
  Dehydration, CTCAE Grade 3 and 4 AE, Number (%) of patients: 1 (4) n (%)
  Dehydration, serious adverse events, Number (%) of patients: 0 n (%)
  Diarrhea, CTCAE Grade 3 and 4 AE, Number (%) of patients: 1 (4) n (%)
  Dizziness, AE of any grade, Number (%) of patients: 1 (4) n (%)
  Dry mouth, AE of any grade, Number (%) of patients: 2 (8) n (%)
  Dyspnea, AE of any grade, Number (%) of patients: 4 (16) n (%)
  Extremity pain, AE of any grade, Number (%) of patients: 4 (16) n (%)
  Fatigue, AE of any grade, Number (%) of patients: 12 (48) n (%)
  Fatigue, CTCAE Grade 3 and 4 AE, Number (%) of patients: 1 (4) n (%)
  Headache, AE of any grade, Number (%) of patients: 2 (8) n (%)
  Hyperbilirubinemia, CTCAE Grade 3 and 4 AE, Number (%) of patients: 1 (4) n (%)
  Hypokalemia, AE of any grade, Number (%) of patients: 2 (8) n (%)
  Hypokalemia, CTCAE Grade 3 and 4 AE, Number (%) of patients: 0 n (%)
  Hyponatremia, CTCAE Grade 3 and 4 AE, Number (%) of patients: 3 (12) n (%)
  Hypophosphatemia, AE of any grade, Number (%) of patients: 5 (20) n (%)
  Hypophosphatemia, CTCAE Grade 3 and 4 AE, Number (%) of patients: 2 (8) n (%)
  Insomnia, AE of any grade, Number (%) of patients: 2 (8) n (%)
  Musculoskeletal chest pain, AE of any grade, Number (%) of patients: 2 (8) n (%)
  Nausea, AE of any grade, Number (%) of patients: 7 (28) n (%)
  Peripheral edema, AE of any grade, Number (%) of patients: 3 (12) n (%)
  Pneumonia, serious adverse events, Number (%) of patients: 0 n (%)
  Rash, AE of any grade, Number (%) of patients: 4 (16) n (%)
  Serum amylase elevated, CTCAE Grade 3 and 4 AE, Number (%) of patients: 1 (4) n (%)
  Spinal cord compression, CTCAE Grade 3 and 4 AE, Number (%) of patients: 2 (8) n (%)
  Urinary tract infection, AE of any grade, Number (%) of patients: 2 (8) n (%)
  Vomiting, AE of any grade, Number (%) of patients: 4 (16) n (%)
  Weight decreased, AE of any grade, Number (%) of patients: 1 (4) n (%)
7-114 mg/m^2, n = 25, first of two ALT elevated lines
  ALT elevated, AE of any grade, Number (%) of patients: 5 (20) n (%)
7-114 mg/m^2, n = 25, second of two ALT elevated lines
  ALT elevated, AE of any grade, Number (%) of patients: 3 (12) n (%)
7–114 mg/m^2 dose levels
  Incidence of diarrhea: 80%
  Incidence of fatigue: 48%
150-216 mg/m^2, n = 22
  ALT elevation, CTCAE Grade 3 and 4 AE, Number (%) of patients: 1 (4.5) n (%)
  AST elevated, AE of any grade, Number (%) of patients: 4 (18.2) n (%)
  Abdominal distension, AE of any grade, Number (%) of patients: 3 (13.6) n (%)
  Abdominal pain, AE of any grade, Number (%) of patients: 10 (45.5) n (%)
  Abdominal pain, serious adverse events, Number (%) of patients: 1 (4.5) n (%)
  Anemia, AE of any grade, Number (%) of patients: 5 (22.7) n (%)
  Any event, AE of any grade, Number (%) of patients: 22 (100) n (%)
  Any event, CTCAE Grade 3 and 4 AE, Number (%) of patients: 14 (63.6) n (%)
  Any event, serious adverse events, Number (%) of patients: 6 (27.3) n (%)
  Arthralgia, CTCAE Grade 3 and 4 AE, Number (%) of patients: 0 n (%)
  Asthenia, AE of any grade, Number (%) of patients: 4 (18.2) n (%)
  Asthenia, CTCAE Grade 3 and 4 AE, Number (%) of patients: 1 (4.5) n (%)
  Asthenia, serious adverse events, Number (%) of patients: 1 (4.5) n (%)
  Back pain, AE of any grade, Number (%) of patients: 2 (9.1) n (%)

From paper PMC3626541, “A first in human, safety, pharmacokinetics, and clinical activity phase I study of once weekly administration of the Hsp90 inhibitor ganetespib (STA-9090) in patients with solid malignancies” (BMC Cancer, 2013)
